Results reported in article PMC7994892, “The M. tuberculosis Rv1523 Methyltransferase Promotes Drug Resistance Through Methylation-Mediated Cell Wall Remodeling and Modulates Macrophages Immune Responses” (Frontiers in Cellular and Infection Microbiology, 2021).

Biological target: Rv1523 MTase (Mycobacterium tuberculosis, UniProt Q50584)
Sequence (Q50584 entry or part of it): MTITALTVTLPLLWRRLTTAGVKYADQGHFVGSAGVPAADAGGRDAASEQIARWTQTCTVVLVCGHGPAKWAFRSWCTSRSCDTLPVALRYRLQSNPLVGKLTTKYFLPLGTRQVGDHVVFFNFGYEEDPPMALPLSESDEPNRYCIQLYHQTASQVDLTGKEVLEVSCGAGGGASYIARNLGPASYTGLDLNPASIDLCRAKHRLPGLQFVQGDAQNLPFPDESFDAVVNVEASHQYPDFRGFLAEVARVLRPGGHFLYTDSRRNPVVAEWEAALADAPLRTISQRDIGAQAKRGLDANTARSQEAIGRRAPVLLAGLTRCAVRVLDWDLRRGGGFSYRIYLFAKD

C[S+](CC[C@H](N)C(=O)O)C[C@H]1O[C@@H](n2cnc3c(N)ncnc32)[C@H](O)[C@@H]1O (stereo partly shown) [S-adenosyl methionine]
coupled colorimetric SAM methyltransferase assay, 510 nm: Rv1523 MTase was able to transfer methyl group from SAM to the cell wall component
